Numbered stars: 1 amine (or outer) side, 2 acyl side, 3 side chain; on linkers, the order of the positions; unused ones are H or OH. Side chains are listed from the residue outwards. Peptide text beside a SMILES is read from it. * marks the point of attachment. C18 diacid = O=C(O)CCCCCCCCCCCCCCCCC(=O)*; γGlu = O=C(O)[C@H](CCC(=O)[*:2])N[*:1]; AEEA = NCCOCCOCC(=O)O

For the assay, the target named is T1, glucagon receptor (Homo sapiens, UniProt P47871).
T1 construct: expressed in transfected cells
T1 sequence (P47871 26-477): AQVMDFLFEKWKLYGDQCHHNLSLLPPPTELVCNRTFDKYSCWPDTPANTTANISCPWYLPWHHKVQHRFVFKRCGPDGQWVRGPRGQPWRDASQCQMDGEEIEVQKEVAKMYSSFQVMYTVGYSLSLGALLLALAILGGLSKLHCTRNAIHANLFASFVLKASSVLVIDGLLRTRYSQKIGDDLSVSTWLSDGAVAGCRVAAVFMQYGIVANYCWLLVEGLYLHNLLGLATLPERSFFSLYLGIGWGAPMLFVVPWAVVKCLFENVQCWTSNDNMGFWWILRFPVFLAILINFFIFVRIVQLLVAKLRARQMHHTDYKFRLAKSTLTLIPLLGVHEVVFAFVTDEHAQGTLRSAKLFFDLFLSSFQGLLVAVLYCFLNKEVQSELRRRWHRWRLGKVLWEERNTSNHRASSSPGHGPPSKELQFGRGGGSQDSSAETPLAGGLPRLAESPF
Description: Assay (I) Glucagon activity (cAMP biosensor, FLIPR). The format is cell-based.
Regarding `CC(C)C[C@H](NC(=O)[C@H](CC(=O)O)NC(=O)[C@H](CC(C)C)NC(=O)[C@H](Cc1ccc(O)cc1)NC(=O)[C@H](CCCNC(=N)N)NC(=O)[C@H](CO)NC(=O)[C@H](Cc1ccc(O)cc1)NC(=O)[C@H](CC(=O)O)NC(=O)[C@H](CO)NC(=O)[C@@H](NC(=O)[C@H](Cc1ccccc1)NC(=O)[C@@H](NC(=O)CNC(=O)[C@H](CCC(N)=O)NC(=O)[C@H](CO)NC(=O)[C@@H](N)Cc1c[nH]cn1)[C@@H](C)O)[C@@H](C)O)C(=O)N[C@@H](CCCNC(=N)N)C(=O)N[C@@H](CCCNC(=N)N)C(=O)N[C@@H](C)C(=O)N[C@@H](CCC(N)=O)C(=O)N[C@@H](CC(=O)O)C(=O)N[C@@H](Cc1ccccc1)C(=O)N[C@H](C(=O)N[C@@H](CCCCNC(=O)CC[C@H](NC(=O)CC[C@H](NC(=O)COCCOCCNC(=O)COCCOCCNC(=O)CC[C@H](NC(=O)CCCCCCCCCCCCCCCCC(=O)O)C(=O)O)C(=O)O)C(=O)O)C(=O)N[C@@H](Cc1c[nH]c2ccccc12)C(=O)N[C@@H](CC(C)C)C(=O)N[C@@H](CCC(=O)O)C(=O)N[C@@H](CO)C(=O)N[C@H](C(=O)O)[C@@H](C)O)C(C)C` [Example 47, N^ε24-[(4S)-4-carboxy-4-[[(4S)-4-carboxy-4-[[2-[2-[2-[[2-[2-[2-[[(4S)-4-carboxy-4-(17-carboxyheptadecanoylamino)butanoyl]amino]ethoxy]ethoxy]acetyl]amino]ethoxy]ethoxy]acetyl]amino]butanoyl]amino]butanoyl]-[Arg12,Leu16,Lys24,Glu27,Ser28]-Glucagon] (H-HSQGTFTSDYSRYLDLRRAQDFVK([γGlu-γGlu-AEEA-AEEA-γGlu-C18 diacid])WLEST-OH), it took 0.136 nM to reach a half-maximal effect (EC50).

`CC(C)C[C@H](NC(=O)[C@H](CC(=O)O)NC(=O)[C@H](CC(C)C)NC(=O)[C@H](Cc1ccc(O)cc1)NC(=O)[C@H](CCCNC(=N)N)NC(=O)[C@H](CO)NC(=O)[C@H](Cc1ccc(O)cc1)NC(=O)[C@H](CC(=O)O)NC(=O)[C@H](CO)NC(=O)[C@@H](NC(=O)[C@H](Cc1ccccc1)NC(=O)[C@@H](NC(=O)CNC(=O)[C@H](CCC(N)=O)NC(=O)[C@H](CO)NC(=O)[C@@H](N)Cc1c[nH]cn1)[C@@H](C)O)[C@@H](C)O)C(=O)N[C@@H](CCCNC(=N)N)C(=O)N[C@@H](CCCNC(=N)N)C(=O)N[C@@H](C)C(=O)N[C@@H](CCC(N)=O)C(=O)N[C@@H](CC(=O)O)C(=O)N[C@@H](Cc1ccccc1)C(=O)N[C@H](C(=O)N[C@@H](CCCCNC(=O)CC[C@H](NC(=O)CC[C@H](NC(=O)COCCOCCNC(=O)COCCOCCNC(=O)CC[C@H](NC(=O)CCCCCCCCCCCCCCCCC(=O)O)C(=O)O)C(=O)O)C(=O)O)C(=O)N[C@@H](Cc1c[nH]c2ccccc12)C(=O)N[C@@H](CC(C)C)C(=O)N[C@@H](CC(C)C)C(=O)N[C@@H](CCC(N)=O)C(=O)N[C@H](C(=O)O)[C@@H](C)O)C(C)C` [Example 48, N^ε24-[(4S)-4-carboxy-4-[[(4S)-4-carboxy-4-[[2-[2-[2-[[2-[2-[2-[[(4S)-4-carboxy-4-(17-carboxyheptadecanoylamino)butanoyl]amino]ethoxy]ethoxy]acetyl]amino]ethoxy]ethoxy]acetyl]amino]butanoyl]amino]butanoyl]-[Arg12,Leu16,Lys24,Leu27,Gln28]-Glucagon] (H-HSQGTFTSDYSRYLDLRRAQDFVK([γGlu-γGlu-AEEA-AEEA-γGlu-C18 diacid])WLLQT-OH): the concentration for a half-maximal effect (EC50) is 0.204 nM.

On to `CC(C)C[C@H](NC(=O)[C@H](Cc1ccc(O)cc1)NC(=O)[C@H](CCCNC(=N)N)NC(=O)[C@H](CO)NC(=O)[C@@H](NC(=O)[C@H](CC(=O)O)NC(=O)[C@H](CO)NC(=O)[C@@H](NC(=O)[C@H](Cc1ccccc1)NC(=O)[C@@H](NC(=O)CNC(=O)[C@H](CCC(N)=O)NC(=O)[C@H](CO)NC(=O)[C@@H](N)Cc1c[nH]cn1)[C@@H](C)O)[C@@H](C)O)C(C)C)C(=O)N[C@@H](CCC(=O)O)C(=O)N[C@@H](CO)C(=O)N[C@@H](CCCNC(=N)N)C(=O)N[C@@H](CCCNC(=N)N)C(=O)N[C@@H](C)C(=O)N[C@@H](CCC(N)=O)C(=O)N[C@@H](CCC(=O)O)C(=O)N[C@@H](Cc1ccccc1)C(=O)N[C@H](C(=O)N[C@@H](CCCCNC(=O)CC[C@H](NC(=O)CC[C@H](NC(=O)COCCOCCNC(=O)COCCOCCNC(=O)CC[C@H](NC(=O)CCCCCCCCCCCCCCCCC(=O)O)C(=O)O)C(=O)O)C(=O)O)C(=O)N[C@@H](Cc1c[nH]c2ccccc12)C(=O)N[C@@H](CC(C)C)C(=O)N[C@@H](CCC(=O)O)C(=O)N[C@@H](CO)C(=O)N[C@H](C(=O)O)[C@@H](C)O)C(C)C` [Example 54, N^ε24-[(4S)-4-carboxy-4-[[(4S)-4-carboxy-4-[[2-[2-[2-[[2-[2-[2-[[(4S)-4-carboxy-4-(17-carboxyheptadecanoylamino)butanoyl]amino]ethoxy]ethoxy]acetyl]amino]ethoxy]ethoxy]acetyl]amino]butanoyl]amino]butanoyl]-[Val10,Arg12,Glu15,Glu21,Lys24,Glu27,Ser28]-Glucagon] (H-HSQGTFTSDVSRYLESRRAQEFVK([γGlu-γGlu-AEEA-AEEA-γGlu-C18 diacid])WLEST-OH), for which the EC50 was found to be 1.63 nM.

With `CC(C)C[C@H](NC(=O)[C@H](Cc1ccc(O)cc1)NC(=O)[C@H](CCCNC(=N)N)NC(=O)[C@H](CO)NC(=O)[C@H](Cc1ccc(O)cc1)NC(=O)[C@H](CC(=O)O)NC(=O)[C@H](CO)NC(=O)[C@@H](NC(=O)[C@H](Cc1ccccc1)NC(=O)[C@@H](NC(=O)CNC(=O)[C@H](CCC(N)=O)NC(=O)[C@H](CO)NC(=O)[C@@H](N)Cc1c[nH]cn1)[C@@H](C)O)[C@@H](C)O)C(=O)N[C@@H](CCC(=O)O)C(=O)N[C@@H](CO)C(=O)N[C@@H](CCCNC(=N)N)C(=O)N[C@@H](CCCNC(=N)N)C(=O)N[C@@H](C)C(=O)N[C@@H](CCC(N)=O)C(=O)N[C@@H](CCC(=O)O)C(=O)N[C@@H](Cc1ccccc1)C(=O)N[C@H](C(=O)N[C@@H](CCCCNC(=O)CC[C@H](NC(=O)CC[C@H](NC(=O)COCCOCCNC(=O)COCCOCCNC(=O)CC[C@H](NC(=O)CCCCCCCCCCCCCCCCC(=O)O)C(=O)O)C(=O)O)C(=O)O)C(=O)N[C@@H](Cc1c[nH]c2ccccc12)C(=O)N[C@@H](CC(C)C)C(=O)N[C@@H](CCC(=O)O)C(=O)N[C@@H](CO)C(=O)N[C@H](C(=O)O)[C@@H](C)O)C(C)C` [Example 55, N^ε24-[(4S)-4-carboxy-4-[[(4S)-4-carboxy-4-[[2-[2-[2-[[2-[2-[2-[[(4S)-4-carboxy-4-(17-carboxyheptadecanoylamino)butanoyl]amino]ethoxy]ethoxy]acetyl]amino]ethoxy]ethoxy]acetyl]amino]butanoyl]amino]butanoyl]-[Arg12,Glu15,Glu21,Lys24,Glu27,Ser28]-Glucagon] (H-HSQGTFTSDYSRYLESRRAQEFVK([γGlu-γGlu-AEEA-AEEA-γGlu-C18 diacid])WLEST-OH), the concentration for a half-maximal effect (EC50) was determined as 1.09 nM.

For the molecule `CC(C)C[C@H](NC(=O)[C@H](Cc1ccc(O)cc1)NC(=O)[C@H](CCCCN)NC(=O)[C@H](CO)NC(=O)[C@H](Cc1ccc(O)cc1)NC(=O)[C@H](CC(=O)O)NC(=O)[C@H](CO)NC(=O)[C@@H](NC(=O)[C@H](Cc1ccccc1)NC(=O)[C@@H](NC(=O)CNC(=O)[C@H](CCC(N)=O)NC(=O)[C@H](CO)NC(=O)[C@@H](N)Cc1c[nH]cn1)[C@@H](C)O)[C@@H](C)O)C(=O)N[C@@H](CCC(=O)O)C(=O)N[C@@H](CO)C(=O)N[C@@H](CCCNC(=N)N)C(=O)N[C@@H](CCCNC(=N)N)C(=O)N[C@@H](C)C(=O)N[C@@H](CCC(N)=O)C(=O)N[C@@H](CC(=O)O)C(=O)N[C@@H](Cc1ccccc1)C(=O)N[C@H](C(=O)N[C@@H](CCCCNC(=O)CC[C@H](NC(=O)CC[C@H](NC(=O)COCCOCCNC(=O)COCCOCCNC(=O)CC[C@H](NC(=O)CCCCCCCCCCCCCCCCC(=O)O)C(=O)O)C(=O)O)C(=O)O)C(=O)N[C@@H](Cc1c[nH]c2ccccc12)C(=O)N[C@@H](CC(C)C)C(=O)N[C@@H](CCC(=O)O)C(=O)N[C@@H](CO)C(=O)N[C@H](C(=O)O)[C@@H](C)O)C(C)C` [Example 59, N^ε24-[(4S)-4-carboxy-4-[[(4S)-4-carboxy-4-[[2-[2-[2-[[2-[2-[2-[[(4S)-4-carboxy-4-(17-carboxyheptadecanoylamino)butanoyl]amino]ethoxy]ethoxy]acetyl]amino]ethoxy]ethoxy]acetyl]amino]butanoyl]amino]butanoyl]-[Glu15,Lys24,Glu27,Ser28]-Glucagon], the response was half-maximal at 0.682 nM (EC50).

Regarding `CC(C)C[C@H](NC(=O)[C@H](Cc1ccc(O)cc1)NC(=O)[C@H](CCCCN)NC(=O)[C@H](CO)NC(=O)[C@H](Cc1ccc(O)cc1)NC(=O)[C@H](CC(=O)O)NC(=O)[C@H](CO)NC(=O)[C@@H](NC(=O)[C@H](Cc1ccccc1)NC(=O)[C@@H](NC(=O)CNC(=O)[C@H](CCC(N)=O)NC(=O)[C@H](CO)NC(=O)[C@@H](N)Cc1c[nH]cn1)[C@@H](C)O)[C@@H](C)O)C(=O)N[C@@H](CCC(=O)O)C(=O)N[C@@H](CO)C(=O)N[C@@H](CCCNC(=N)N)C(=O)N[C@@H](CCCNC(=N)N)C(=O)N[C@@H](C)C(=O)N[C@@H](CCC(N)=O)C(=O)N[C@@H](CC(=O)O)C(=O)N[C@@H](Cc1ccccc1)C(=O)N[C@H](C(=O)N[C@@H](CCCCNC(=O)CC[C@H](NC(=O)CC[C@H](NC(=O)COCCOCCNC(=O)COCCOCCNC(=O)CC[C@H](NC(=O)CCCCCCCCCCCCCCCCC(=O)O)C(=O)O)C(=O)O)C(=O)O)C(=O)N[C@@H](Cc1c[nH]c2ccccc12)C(=O)N[C@@H](CC(C)C)C(=O)N[C@@H](CC(C)C)C(=O)N[C@@H](CCC(N)=O)C(=O)N[C@H](C(=O)O)[C@@H](C)O)C(C)C` [Example 60, N^ε24-[(4S)-4-carboxy-4-[[(4S)-4-carboxy-4-[[2-[2-[2-[[2-[2-[2-[[(4S)-4-carboxy-4-(17-carboxyheptadecanoylamino)butanoyl]amino]ethoxy]ethoxy]acetyl]amino]ethoxy]ethoxy]acetyl]amino]butanoyl]amino]butanoyl]-[Glu15,Lys24,Leu27,Gln28]-Glucagon], the EC50 came to 0.517 nM.

The record behind these values is patent US9486506B2 (Novo Nordisk A/S, priority 2011, dated 2016).
